# Experimental data taken from patent US10738033B2, “Trk inhibition” (NantBio, Inc., priority 2017, dated 2020).
# Molecular target: T1, TrkA(h) (Homo sapiens, UniProt P04629)
# T1 construct: purchased Millipore (KinaseProfiler service)
# Experiment: KinaseProfiler (Millipore) radiometric kinase inhibition assay
# Format: biochemical
# Conditions: compound concentration 1 μM
# Method: The KinaseProfiler™ Service Assay Protocols (Millipore) were used to test the kinase inhibiting activity of novel compounds from this invention. To do this, the buffer composition was as follows: 20 mM MOPS, 1 mM EDTA, 0.01% Brij-35, 5% Glycerol, 0.1% β-mercaptoethanol, 1 mg/mL BSA. Test compounds were initially dissolved in DMSO at the desired concentration, then serially diluted into the kinase assay buffer. In a final reaction volume of 25 μL, TrkA(h) (5-10 mU) is incubated with 8 mM MOPS pH 7.0, 0.2 mM EDTA, 200 μM LRRASLG (Kemptide), 10 mM MgAcetate and [γ^33P-ATP]. The reaction was initiated by the addition of the MgATP mix. After incubation for 40 minute at room temperature, the reaction was stopped by addition of 5 μL of a 3% phosphoric acid solution. 10 μL of the reaction was then spotted onto a P30 filtermat and washed three times for 5 minutes in 50 mM phosphoric acid and once in methanol prior to drying and scintillation counting. Wells containing substrate but no kinase and wells containing a phosphopeptide control were used to set 0% and 100% phosphorylation value, respectively.
# T1 sequence (P04629 33-796): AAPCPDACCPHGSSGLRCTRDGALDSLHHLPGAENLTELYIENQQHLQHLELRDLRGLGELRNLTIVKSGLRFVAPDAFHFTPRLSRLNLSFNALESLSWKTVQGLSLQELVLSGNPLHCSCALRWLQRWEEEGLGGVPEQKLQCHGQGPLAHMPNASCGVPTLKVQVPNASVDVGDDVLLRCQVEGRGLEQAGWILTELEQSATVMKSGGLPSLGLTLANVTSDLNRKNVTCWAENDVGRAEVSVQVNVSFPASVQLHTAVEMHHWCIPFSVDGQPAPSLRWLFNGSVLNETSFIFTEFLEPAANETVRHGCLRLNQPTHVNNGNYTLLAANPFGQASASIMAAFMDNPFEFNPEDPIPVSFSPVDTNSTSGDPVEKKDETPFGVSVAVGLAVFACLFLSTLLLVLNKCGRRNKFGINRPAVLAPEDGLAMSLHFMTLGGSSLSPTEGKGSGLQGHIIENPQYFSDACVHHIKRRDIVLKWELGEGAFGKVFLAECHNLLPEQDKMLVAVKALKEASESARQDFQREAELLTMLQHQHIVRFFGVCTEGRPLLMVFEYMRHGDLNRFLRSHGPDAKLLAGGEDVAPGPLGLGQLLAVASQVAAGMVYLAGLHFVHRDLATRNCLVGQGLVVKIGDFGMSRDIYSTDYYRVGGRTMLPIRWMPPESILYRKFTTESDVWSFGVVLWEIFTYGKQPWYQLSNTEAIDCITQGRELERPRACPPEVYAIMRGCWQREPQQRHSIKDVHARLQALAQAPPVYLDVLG
row,SMILES,inhibition at 1 µM [%]
1,c1ccc(C2CCCN2c2cc(Nc3cc(C4CC4)[nH]n3)ncn2)cc1 (stereo not drawn) [Example 24],101
2,Cc1ccc(C2CCCN2c2cc(Nc3cc(C4CC4)[nH]n3)ncn2)cc1 (stereo not drawn) [Example 25],100
3,FC(F)(F)c1ccc(C2CCCN2c2cc(Nc3cc(C4CC4)[nH]n3)ncn2)cc1 (stereo not drawn) [Example 26],98
4,COc1ccc(C2CCCN2c2cc(Nc3cc(C4CC4)[nH]n3)ncn2)cc1 (stereo not drawn) [Example 27],101
5,Fc1ccc(C2CCCN2c2cc(Nc3cc(C4CC4)[nH]n3)ncn2)cc1 (stereo not drawn) [Example 28],103
6,Clc1ccc(C2CCCN2c2cc(Nc3cc(C4CC4)[nH]n3)ncn2)cc1 (stereo not drawn) [Example 29],105
7,Cc1cccc(C2CCCN2c2cc(Nc3cc(C4CC4)[nH]n3)ncn2)c1 (stereo not drawn) [Example 30],97
8,FC(F)(F)c1cccc(C2CCCN2c2cc(Nc3cc(C4CC4)[nH]n3)ncn2)c1 (stereo not drawn) [Example 31],61
9,COc1cccc(C2CCCN2c2cc(Nc3cc(C4CC4)[nH]n3)ncn2)c1 (stereo not drawn) [Example 32],91
10,Fc1cccc(C2CCCN2c2cc(Nc3cc(C4CC4)[nH]n3)ncn2)c1 (stereo not drawn) [Example 33],103
11,Clc1cccc(C2CCCN2c2cc(Nc3cc(C4CC4)[nH]n3)ncn2)c1 (stereo not drawn) [Example 34],101
12,Cc1ccccc1C1CCCN1c1cc(Nc2cc(C3CC3)[nH]n2)ncn1 (stereo not drawn) [Example 35],92
13,FC(F)(F)c1ccccc1C1CCCN1c1cc(Nc2cc(C3CC3)[nH]n2)ncn1 (stereo not drawn) [Example 36],93
14,COc1ccccc1C1CCCN1c1cc(Nc2cc(C3CC3)[nH]n2)ncn1 (stereo not drawn) [Example 37],101
15,Fc1ccccc1C1CCCN1c1cc(Nc2cc(C3CC3)[nH]n2)ncn1 (stereo not drawn) [Example 38],95
16,Clc1ccccc1C1CCCN1c1cc(Nc2cc(C3CC3)[nH]n2)ncn1 (stereo not drawn) [Example 39],97
17,CN(C)c1ccc(C2CCCN2c2cc(Nc3cc(C4CC4)[nH]n3)ncn2)cc1 (stereo not drawn) [Example 40],102
18,CN(C)c1cccc(C2CCCN2c2cc(Nc3cc(C4CC4)[nH]n3)ncn2)c1 (stereo not drawn) [Example 41],101
19,Fc1cccc(F)c1C1CCCN1c1cc(Nc2cc(C3CC3)[nH]n2)ncn1 (stereo not drawn) [Example 42],101
20,Fc1ccc(C2CCCN2c2cc(Nc3cc(C4CC4)[nH]n3)ncn2)c(F)c1 (stereo not drawn) [Example 43],105
21,Fc1ccc(F)c(C2CCCN2c2cc(Nc3cc(C4CC4)[nH]n3)ncn2)c1 (stereo not drawn) [Example 44],103
22,OC1CC(c2cc(F)ccc2F)N(c2cc(Nc3cc(C4CC4)[nH]n3)ncn2)C1 (stereo not drawn) [Example 45],96
23,Clc1ccc(C2CCCN2c2cc(Nc3cc(C4CC4)[nH]n3)ncn2)cc1Cl (stereo not drawn) [Example 46],100
24,Cc1ccc(C2CCCN2c2ncnc(Nc3cc(C4CC4)[nH]n3)c2C#N)cc1 (stereo not drawn) [Example 47],-6

row,SMILES,inhibition at 1 µM [%]
1,Fc1ccc(C2CCCN2c2ncnc(Nc3cc(C4CC4)[nH]n3)c2F)cc1 (stereo not drawn) [Example 48],51
2,Fc1ccc(C2CCCN2c2cc(Nc3cc(C4CCC4)[nH]n3)ncn2)cc1 (stereo not drawn) [Example 49],101
3,C/C=C/c1cc(Nc2cc(N3CCCC3c3ccc(F)cc3)ncn2)n[nH]1 (stereo not drawn) [Example 50],99
4,Fc1ccc(C2CCCN2c2cc(Nc3cc(-c4ccco4)[nH]n3)ncn2)cc1 (stereo not drawn) [Example 51],79
5,Fc1ccc(C2CCCN2c2cc(Nc3cc(-c4ccccn4)[nH]n3)ncn2)cc1 (stereo not drawn) [Example 52],30
6,CC(C)Oc1cc(Nc2cc(N3CCCC3c3ccccc3Cl)ncn2)n[nH]1 (stereo not drawn) [Example 53],96
7,Clc1ccccc1C1CCCN1c1cc(Nc2cc(C3CCCO3)[nH]n2)ncn1 (stereo not drawn) [Example 54],70
8,CC(C)(C)OC(=O)N1CCC(c2cc(Nc3cc(N4CCCC4c4ccccc4Cl)ncn3)n[nH]2)CC1 (stereo not drawn) [Example 55],6
9,Clc1ccccc1C1CCCN1c1cc(Nc2cc(-c3ccco3)[nH]n2)ncn1 (stereo not drawn) [Example 56],47
10,Fc1ccc(Nc2cc(N3CCCC3c3ccc(F)cc3)ncn2)cc1 (stereo not drawn) [Example 57],44
11,N#Cc1cnc(Nc2cc(N3CCCC3c3ccc(F)cc3)ncn2)s1 (stereo not drawn) [Example 58],7
12,CC(C)n1cc(Nc2cc(N3CCCC3c3ccc(F)cc3)ncn2)cn1 (stereo not drawn) [Example 59],0
13,Fc1ccc(C2CCCN2c2cc(Nc3n[nH]c4ccccc34)ncn2)cc1 (stereo not drawn) [Example 60],79
14,CN1CCN(c2ccc(Nc3cc(N4CCCC4c4ccc(F)cc4)ncn3)nc2)CC1 (stereo not drawn) [Example 61],-12
15,Fc1ccc(C2CCN2c2cc(Nc3cc(C4CC4)[nH]n3)ncn2)cc1 (stereo not drawn) [Example 62],105
16,c1ccc(C2CCCCN2c2cc(Nc3cc(C4CC4)[nH]n3)ncn2)cc1 (stereo not drawn) [Example 63],99
17,c1ccc(C2COCCN2c2cc(Nc3cc(C4CC4)[nH]n3)ncn2)cc1 (stereo not drawn) [Example 64],85
18,CN1CCN(c2cc(Nc3cc(C4CC4)[nH]n3)ncn2)C(c2ccccc2)C1 (stereo not drawn) [Example 65],79
19,Cc1cc(Nc2cc(N3CCCC3c3ccc(Cl)cc3)ncn2)n[nH]1 (stereo not drawn) [Example 66],95
20,CCCc1cc(Nc2cc(N3CCCC3c3ccc(Cl)cc3)ncn2)n[nH]1 (stereo not drawn) [Example 67],99
21,Nc1nc(Nc2cc(C3CC3)[nH]n2)cc(N2CCCC2c2ccc(F)cc2)n1 (stereo not drawn) [Example 71],100
22,Fc1ccc(C2CCCN2c2ncnc(Nc3cc(C4CC4)[nH]n3)n2)cc1 (stereo not drawn) [Example 73],100
23,Fc1ccc(C2CCCN2c2ncnc(Nc3cc(C4CC4)[nH]n3)n2)c(F)c1 (stereo not drawn) [Example 74],100
24,Clc1ccc(C2CCCN2c2ncnc(Nc3cc(C4CC4)[nH]n3)n2)cc1 (stereo not drawn) [Example 75],100
